# From article PMC8596838, “Xylose‐Configured Cyclophellitols as Selective Inhibitors for Glucocerebrosidase” (Chembiochem, 2021)
# Read-outs that look alike come from different tables or passages of the source.
# Experiments:
# Assay type in all cases: biochemical
# [1] = biological target: T1, rhGBA (recombinant human GBA, Imiglucerase) (Homo sapiens, UniProt P04062, R534H); assay: Fluorogenic substrate (4-MU-β-D-glucoside) enzymatic assay, rhGBA; details: for inhibitory activity against GBA: in vitro, 30 min
# T1 construct: purchased Sanofi Genzyme (Cambridge, MA, USA)
# T1 sequence (P04062 40-536 R534H): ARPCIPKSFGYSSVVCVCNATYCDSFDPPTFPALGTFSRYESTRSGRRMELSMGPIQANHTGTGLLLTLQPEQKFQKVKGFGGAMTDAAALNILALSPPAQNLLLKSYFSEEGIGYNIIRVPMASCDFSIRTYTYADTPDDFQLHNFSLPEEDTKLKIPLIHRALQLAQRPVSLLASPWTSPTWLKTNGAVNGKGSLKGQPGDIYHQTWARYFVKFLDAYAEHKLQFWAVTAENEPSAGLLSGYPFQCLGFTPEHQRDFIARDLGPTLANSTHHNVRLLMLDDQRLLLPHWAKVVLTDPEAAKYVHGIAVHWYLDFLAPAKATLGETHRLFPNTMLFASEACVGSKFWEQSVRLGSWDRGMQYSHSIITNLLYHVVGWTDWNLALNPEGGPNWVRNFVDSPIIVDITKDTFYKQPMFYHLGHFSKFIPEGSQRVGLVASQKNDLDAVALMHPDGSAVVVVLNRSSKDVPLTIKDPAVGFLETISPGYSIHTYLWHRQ
# Protocol: (§1) Using fluorogenic substrate‐based assays, we determined apparent IC50 values at 30 min incubation time of the xylo‐cyclophellitols in rhGBA, and GBA2 and GBA3 lysates of cells expressing only each of the enzymes specifically.
# (§2) Enzyme activity assays: All assays were performed with lysates of HEK293T cells or zebrafish larvae in 96‐well plates at 37 °C. Samples were diluted with McIlvaine buffer (150 mM citric acid‐Na2HPO4) to a final volume of 25 μL, at pH appropriate for each enzyme. Assays were performed by incubating the samples with 100 μL 4‐methylumbelliferyl‐β‐D‐glucoside substrates diluted in McIlvaine buffer (with 0.1 % (w/v) bovine serum albumin (BSA)) for a period of 30 min or 3 h. The substrate mixtures used for each enzyme were as follows: GBA, 3.75 mM 4‐MU‐β‐D‐glucopyranoside (Glycosynth, Warrington Cheshire, UK) at pH 5.2, supplemented with 0.2 % (w/v) sodium taurocholate, 0.1 % (v/v) Triton X‐100, 0.1 % (w/v) bovine serum albumin (BSA); GBA2, 3.75 mM 4 MU‐β‐D‐glucopyranoside at pH 5.8; GBA3, 3.75 mM 4‐MU‐β‐D‐glucopyranoside at pH 6.0. After stopping the enzyme reaction with 200 μL 1 M NaOH‐glycine (pH 10.3), 4‐methylumbelliferone fluorescence was measured with a fluorimeter LS55 (Perkin Elmer, Waltham, MA, USA) with λEX 366 nm and λEM 445 nm. Enzyme activities were determined by subtraction of background (measured for incubations without enzyme). IC50 values were determined exactly as earlier described.[36]
# (§3) The IC50 values were determined using a fluorogenic enzymatic assay. For GBA, 3.16 ng (53 fmol) of rhGBA, (recombinant human GBA, Imiglucerase) obtained from Sanofi Genzyme (Cambridge, MA, USA), was prepared in 12.5 μL McIlvaine buffer (150 mM, pH 5.2) supplemented with 0.1 % (v/v) Triton X‐100, and 0.2 % (w/v) sodium taurocholate, 0.1 % (w/v) bovine serum albumin (BSA). The enzyme was incubated with 12.5 μL of inhibitors diluted in McIlvaine buffer (150 mM, pH 5.2) at 37 °C for 30 min. In the case of GBA2 or GBA3, lysates of GBA/GBA2 KO HEK293T cells overexpressing GBA2 or GBA3, respectively where used. The enzymatic activity of GBA, GBA2 and GBA3 were measured with 4MU‐β‐D‐glucoside substrate as described above.
# [2] = biological target: T2, GBA2 (Homo sapiens, UniProt Q9HCG7); assay: Fluorogenic substrate enzymatic assay, lysate of GBA/GBA2 KO HEK293T cells overexpressing GBA2; details: for (Ratio) GBA2/GBA / GBA2/GBA ratio, 3 h: IC50 ratio; for (Ratio) GBA2/GBA / inhibitory activity against GBA2: in vitro, 30 min; for IC50: n=3
# T2 construct: expressed in transfected cells; host or cells: HEK293T (GBA/GBA2 KO background for the fluorogenic assay; endogenous-GBA background with GBA2 and GBA3 overexpressed for ABPP and intact-cell assays)
# T2 sequence (Q9HCG7 1-927): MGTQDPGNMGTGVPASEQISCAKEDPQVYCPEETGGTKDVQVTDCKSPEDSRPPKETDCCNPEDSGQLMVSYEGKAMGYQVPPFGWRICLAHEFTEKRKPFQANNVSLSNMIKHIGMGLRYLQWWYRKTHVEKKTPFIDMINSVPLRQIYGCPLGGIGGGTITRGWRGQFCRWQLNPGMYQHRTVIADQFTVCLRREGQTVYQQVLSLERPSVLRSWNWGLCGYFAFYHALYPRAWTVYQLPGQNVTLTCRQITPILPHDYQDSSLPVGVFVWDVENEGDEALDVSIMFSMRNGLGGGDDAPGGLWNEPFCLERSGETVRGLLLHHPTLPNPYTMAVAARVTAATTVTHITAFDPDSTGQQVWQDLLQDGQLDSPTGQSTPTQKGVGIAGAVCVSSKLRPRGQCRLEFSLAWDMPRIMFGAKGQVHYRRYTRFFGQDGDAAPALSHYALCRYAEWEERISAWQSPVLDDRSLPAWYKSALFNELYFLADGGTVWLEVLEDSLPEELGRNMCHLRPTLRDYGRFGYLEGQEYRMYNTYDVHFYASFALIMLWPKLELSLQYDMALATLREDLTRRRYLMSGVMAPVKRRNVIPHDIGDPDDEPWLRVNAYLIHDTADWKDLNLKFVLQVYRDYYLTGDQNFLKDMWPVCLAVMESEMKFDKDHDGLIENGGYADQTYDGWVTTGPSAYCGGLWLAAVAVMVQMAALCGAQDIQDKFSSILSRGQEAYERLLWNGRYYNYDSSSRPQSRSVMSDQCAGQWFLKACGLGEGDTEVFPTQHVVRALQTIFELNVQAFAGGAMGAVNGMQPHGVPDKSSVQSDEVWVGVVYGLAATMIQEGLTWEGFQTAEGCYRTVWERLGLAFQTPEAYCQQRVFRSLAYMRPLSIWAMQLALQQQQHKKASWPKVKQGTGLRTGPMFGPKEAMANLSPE
# Protocol: as §2
# as §3, with “The enzyme was incubated with 12.5 μL of inhibitors diluted in McIlvaine buffer (150 mM, pH 5.2) at 37 °C for 30 min.” left out
# [3] = biological target: T3, GBA3 (Homo sapiens, UniProt Q9H227); assay: Fluorogenic substrate enzymatic assay, lysate of GBA/GBA2 KO HEK293T cells overexpressing GBA3; details: for (Ratio) GBA3/GBA: IC50 ratio; for (Ratio) GBA3/GBA / inhibitory activity against GBA3: in vitro, 30 min; for IC50: incubation time 30 min, enzymatic assay, ±SD, n=3, read-out: In vitro apparent IC50 GBA3
# T3 construct: expressed in transfected cells; host or cells: HEK293T (GBA/GBA2 KO background for the fluorogenic assay; endogenous-GBA background with GBA2 and GBA3 overexpressed for ABPP and intact-cell assays)
# T3 sequence (Q9H227 1-469): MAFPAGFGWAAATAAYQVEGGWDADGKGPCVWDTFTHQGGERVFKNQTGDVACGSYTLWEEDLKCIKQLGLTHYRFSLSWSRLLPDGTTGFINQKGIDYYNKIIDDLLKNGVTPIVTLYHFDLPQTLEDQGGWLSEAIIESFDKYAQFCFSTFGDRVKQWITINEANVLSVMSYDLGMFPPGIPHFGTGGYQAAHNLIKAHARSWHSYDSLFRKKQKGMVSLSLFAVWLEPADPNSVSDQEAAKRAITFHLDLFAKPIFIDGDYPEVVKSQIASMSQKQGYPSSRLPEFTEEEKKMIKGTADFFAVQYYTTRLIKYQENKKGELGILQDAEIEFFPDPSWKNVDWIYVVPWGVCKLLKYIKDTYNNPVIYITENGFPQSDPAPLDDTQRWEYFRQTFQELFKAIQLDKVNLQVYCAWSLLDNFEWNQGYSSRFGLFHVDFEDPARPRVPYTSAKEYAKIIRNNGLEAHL
# Protocol: as §1, §2, §3
# [4] = biological target: T1, rhGBA (recombinant human GBA, Imiglucerase); assay: Fluorogenic substrate (4-MU-β-D-glucoside) enzymatic assay, rhGBA
# [5] = incubation time 30 min, enzymatic assay, ±SD, n=3, read-out: In vitro apparent IC50 rhGBA
# [6] = incubation time 30 min, enzymatic assay, ±SD, read-out: In vitro apparent IC50 GBA2
# [7] = enzymatic assay performed for 3 h, read-out: In vitro apparent IC50 GBA2, 3 h
"IC50 ([4]; enzymatic assay performed for 3 h, n=3, read-out: In vitro apparent IC50 rhGBA, 3 h) [nM]",SMILES,"IC50 [1, 5] [nM]",(Ratio) GBA2/GBA [2],"IC50 [2, 6] [nM]",(Ratio) GBA3/GBA [3],IC50 [3] [nM],inhibitory activity against GBA [1],inhibitory activity against GBA2 [2],inhibitory activity against GBA3 [3],"GBA2/GBA ratio, 3 h ([2]; in vitro 3 h)","IC50 [2, 7] [nM]",IC50 [1] [nM],increase in inhibitory activity towards GBA2 of aziridines relative to epoxide analogues ([2]; in vitro 3 h),increase in inhibitory activity towards GBA of aziridines relative to epoxide analogues ([4]; in vitro 3 h)
,O=C(CCCCC1SCC2NC(=O)NC21)NCc1cn(CCCCCCCCN2C3CC(O)C(O)C(O)C32)nn1 (centres unmarked) [ABP 7],164 ± 22.1,295,48300 ± 9010,155,25300 ± 5010,,,,,,,,
,CC1=CC(C)=[N+]2C1=C(CCCCc1cn(CCCCCCCCN3[C@H]4[C@H](O)[C@@H](O)[C@H](O)C[C@H]43)nn1)c1c(C)cc(C)n1[B-]2(F)F (some centres unmarked) [ABP 8],2.7 ± 0.45,23,61.2 ± 12,193,522 ± 209,,,,,,,,
,"CN1/C(=C/C=C/C=C/C2=[N+](CCCCCC(=O)NCc3cn(CCCCCCCCN4[C@@H]5[C@H](CO)[C@@H](O)[C@H](O)[C@@H](O)[C@@H]54)nn3)c3ccccc3C2(C)C)C(C)(C)c2ccccc21 (some centres unmarked) [ABP 10, reference compound]",8.1 ± 1.94,2.6,21.5 ± 0.42,1,8.54 ± 1.18,,,,,,,,
,"O[C@@H]1[C@@H](O)[C@H](O)C[C@@H]2O[C@H]12 [compound 11, α‐D‐xylose‐configured cyclophellitol]",,,,,,no or little inhibitory activity,no or little inhibitory activity,no or little inhibitory activity,,,,,
,O[C@@H]1[C@@H](O)[C@H](O)C[C@@H]2N[C@H]12 [compound 12],,,55800 ± 2340,,,no or little inhibitory activity,no or little inhibitory activity,no or little inhibitory activity,,,,,
2630 ± 340,"O[C@H]1[C@H](O)[C@@H](O)[C@@H]2O[C@@H]2[C@@H]1O [compound 13, Conduritol B‐epoxide, reference compound]",34900 ± 1670,>14,> 500000,>14,> 500000,,,,40,105000 ± 5850,,,
,"O[C@H]1[C@H](O)[C@@H](O)[C@@H]2N[C@@H]2[C@@H]1O [compound 14, conduritol B‐aziridine, reference compound]",,,,,,,,,6.6,10800 ± 3300,1630 ± 70,10–20 fold,less than two‐fold increase
